Assay: Binding affinity towards Opioid receptor delta 1 from guinea pig brain using [3H]naltrindole as radioligand

Row | Compound | Ki
1 | C[C@H]1[C@H]2Cc3ccc(O)cc3[C@@]1(C)CCN2C[C@@H]1CCCO1 | 2.5 nM
2 | C[C@H]1C2C(=O)c3ccc(O)cc3[C@@]1(C)CCN2CC1CC1 [3-Cyclopropylmethyl-8-hydroxy-6,11-dimethyl-3,4,5,6-tetrahydro-2H-2,6-methano-benzo[d]azocin-1-one] | 20 nM
3 | C[C@H]1C2Cc3ccc(Nc4cccnc4)cc3[C@@]1(C)CCN2CC1CC1 [(3-Cyclopropylmethyl-6,11-dimethyl-1,2,3,4,5,6-hexahydro-2,6-methano-benzo[d]azocin-8-yl)-pyridin-3-yl-amine] | 21 nM
4 | C[C@H]1C2Cc3ccc(Nc4ccc(Cl)c(Cl)c4)cc3[C@@]1(C)CCN2CC1CC1 [(3-Cyclopropylmethyl-6,11-dimethyl-1,2,3,4,5,6-hexahydro-2,6-methano-benzo[d]azocin-8-yl)-(3,4-dichloro-phenyl)-amine] | 29 nM
5 | C[C@H]1[C@H]2Cc3ccc(N)cc3[C@@]1(C)CCN2C[C@@H]1CCCO1 [6,11-Dimethyl-3-(tetrahydro-furan-2-ylmethyl)-1,2,3,4,5,6-hexahydro-2,6-methano-benzo[d]azocin-8-ylamine] | 370 nM
6 | COc1cccc(Nc2ccc3c(c2)[C@@]2(C)CCN(CC4CC4)C(C3)[C@@H]2C)c1 [(3-Cyclopropylmethyl-6,11-dimethyl-1,2,3,4,5,6-hexahydro-2,6-methano-benzo[d]azocin-8-yl)-(3-methoxy-phenyl)-amine] | 13 nM
7 | C[C@H]1C2Cc3ccc(NCc4ccc(Cl)cc4)cc3[C@@]1(C)CCN2CC1CC1 [(4-Chloro-benzyl)-(3-cyclopropylmethyl-6,11-dimethyl-1,2,3,4,5,6-hexahydro-2,6-methano-benzo[d]azocin-8-yl)-amine] | 100 nM
8 | COc1ccccc1Nc1ccc2c(c1)[C@@]1(C)CCN(CC3CC3)C(C2)[C@@H]1C [(3-Cyclopropylmethyl-6,11-dimethyl-1,2,3,4,5,6-hexahydro-2,6-methano-benzo[d]azocin-8-yl)-(2-methoxy-phenyl)-amine] | 98 nM
9 | C[C@H]1C2Cc3ccc(N(C)C)cc3[C@@]1(C)CCN2CC1CC1 [((6S,11R)-3-Cyclopropylmethyl-6,11-dimethyl-1,2,3,4,5,6-hexahydro-2,6-methano-benzo[d]azocin-8-yl)-dimethyl-amine] | 810 nM
10 | C[C@H]1C2Cc3ccc(Nc4ccccn4)cc3[C@@]1(C)CCN2CC1CC1 [(3-Cyclopropylmethyl-6,11-dimethyl-1,2,3,4,5,6-hexahydro-2,6-methano-benzo[d]azocin-8-yl)-pyridin-2-yl-amine] | 11 nM
11 | C[C@H]1C2Cc3ccc(Nc4ccc(N(C)C)cc4)cc3[C@@]1(C)CCN2CC1CC1 [N-(3-Cyclopropylmethyl-6,11-dimethyl-1,2,3,4,5,6-hexahydro-2,6-methano-benzo[d]azocin-8-yl)-N',N'-dimethyl-benzene-1,4-diamine] | 75 nM
12 | COc1ccc(CNc2ccc3c(c2)[C@@]2(C)CCN(CC4CC4)C(C3)[C@@H]2C)cc1 [(3-Cyclopropylmethyl-6,11-dimethyl-1,2,3,4,5,6-hexahydro-2,6-methano-benzo[d]azocin-8-yl)-(4-methoxy-benzyl)-amine] | 80 nM
13 | C[C@H]1C2C(=O)c3ccc(N)cc3[C@@]1(C)CCN2CC1CC1 [8-Amino-3-cyclopropylmethyl-6,11-dimethyl-3,4,5,6-tetrahydro-2H-2,6-methano-benzo[d]azocin-1-one] | 29 nM
14 | Cc1ccc(Nc2ccc3c(c2)[C@@]2(C)CCN(CC4CC4)C(C3)[C@@H]2C)cc1 [(3-Cyclopropylmethyl-6,11-dimethyl-1,2,3,4,5,6-hexahydro-2,6-methano-benzo[d]azocin-8-yl)-p-tolyl-amine] | 6.2 nM
15 | CC[C@@]12CCN(CC3CC3)C(C(=O)c3ccc(Nc4ccccc4)cc31)[C@@H]2C [3-Cyclopropylmethyl-6-ethyl-11-methyl-8-phenylamino-3,4,5,6-tetrahydro-2H-2,6-methano-benzo[d]azocin-1-one] | 37 nM
16 | C[C@H]1C2Cc3ccc(Nc4ccncc4)cc3[C@@]1(C)CCN2CC1CC1 [(3-Cyclopropylmethyl-6,11-dimethyl-1,2,3,4,5,6-hexahydro-2,6-methano-benzo[d]azocin-8-yl)-pyridin-4-yl-amine] | 240 nM
17 | C[C@H]1C2Cc3ccc(N=C(c4ccccc4)c4ccccc4)cc3[C@@]1(C)CCN2CC1CC1 [Benzhydrylidene-(3-cyclopropylmethyl-6,11-dimethyl-1,2,3,4,5,6-hexahydro-2,6-methano-benzo[d]azocin-8-yl)-amine] | 220 nM
18 | C[C@H]1[C@H]2Cc3ccc(Nc4ccccc4)cc3[C@@]1(C)CCN2C[C@@H]1CCCO1 [[6,11-Dimethyl-3-(tetrahydro-furan-2-ylmethyl)-1,2,3,4,5,6-hexahydro-2,6-methano-benzo[d]azocin-8-yl]-phenyl-amine] | 35 nM
19 | C[C@@H]1[C@@H]2Cc3ccc(N)cc3[C@]1(C)CCN2CC1CC1 [3-Cyclopropylmethyl-6,11-dimethyl-1,2,3,4,5,6-hexahydro-2,6-methano-benzo[d]azocin-8-ylamine] | 920 nM
20 | COc1ccc(Nc2ccc3c(c2)[C@@]2(C)CCN(CC4CC4)C(C3)[C@@H]2C)cc1 [(3-Cyclopropylmethyl-6,11-dimethyl-1,2,3,4,5,6-hexahydro-2,6-methano-benzo[d]azocin-8-yl)-(4-methoxy-phenyl)-amine] | 8.3 nM
21 | CC[C@@]12CCN(CC3CC3)C(C(=O)c3ccc(N)cc31)[C@@H]2C [8-Amino-3-cyclopropylmethyl-6-ethyl-11-methyl-3,4,5,6-tetrahydro-2H-2,6-methano-benzo[d]azocin-1-one] | 81 nM
22 | C[C@H]1C2Cc3ccc(Nc4ccc(C(C)(C)C)cc4)cc3[C@@]1(C)CCN2CC1CC1 [(4-tert-Butyl-phenyl)-(3-cyclopropylmethyl-6,11-dimethyl-1,2,3,4,5,6-hexahydro-2,6-methano-benzo[d]azocin-8-yl)-amine] | 61 nM
23 | C[C@H]1C2Cc3ccc(Nc4ccc(C(F)(F)F)cc4)cc3[C@@]1(C)CCN2CC1CC1 [(3-Cyclopropylmethyl-6,11-dimethyl-1,2,3,4,5,6-hexahydro-2,6-methano-benzo[d]azocin-8-yl)-(4-trifluoromethyl-phenyl)-amine] | 180 nM
24 | C[C@H]1C2Cc3ccc(Nc4ccc(Cl)cc4)cc3[C@@]1(C)CCN2CC1CC1 [(4-Chloro-phenyl)-(3-cyclopropylmethyl-6,11-dimethyl-1,2,3,4,5,6-hexahydro-2,6-methano-benzo[d]azocin-8-yl)-amine] | 26 nM
25 | C[C@H]1C2Cc3cc4c(cc3[C@@]1(C)CCN2CC1CC1)[nH]c1ccccc14 [17-cyclopropylmethyl-1,20-dimethyl-(1S,20R)-5,17-diazapentacyclo[14.3.1.02,14.04,12.06,11]icosa-2(14),3,6(11),7,9,12-hexaene] | 170 nM

Reference: BindingDB's records for doi:10.1021/jm020429w (Rensselaer Polytechnic Institute, 2003)
